The subject of one test is U2OS cells. In words: Circadian phase control in U2OS reporter cells. The test is classed as cell-based, human. The source says:
Hypothetically, a transient change in period will lead to a phase change, consequently providing a relevant approach to jetlag treatment. Therefore, we applied visible-light responsive modulator 9 to control the circadian phase (Fig. 7). The compound was initially irradiated with green light for inactivation (cis-enriched 9, Fig. 7a, timepoint A) and applied to U2OS cells for luminescence rhythm measurement. On the next day, the cells were irradiated with violet light for compound activation or kept in dark (Fig. 7a, timepoint B).
Fig. 7 Circadian phase control using chronophotopharmacology. Green light (λmax = 530 nm)-irradiated compound 9 was applied to U2OS cells at 0 h (A). On the next day (B), the cells were irradiated with violet light (λmax = 400 nm) for 0 min (black and green lines), 10 min (light violet line), or 20 min (dark violet line). After 48 h or 72 h (C), the cells were irradiated with green light (λmax = 530 nm) for 0 min (black line) or 30 min (green, light violet, and dark violet lines). Luminescence rhythm profiles (average of n = 6) are shown in a. […] Luminescence is given in arbitrary units. n = 6 biologically independent samples. […]
Stable U2OS reporter cells harboring Bmal1-dLuc reporter were suspended in phenol red-free culture medium [DMEM (D2902, Sigma) supplemented with 10% fetal bovine serum, 3.5 mg/mL D-glucose, 3.7 mg/mL sodium bicarbonate, 0.29 mg/mL L-glutamine, 100 units/mL penicillin, and 100 µg/mL streptomycin] and plated onto a white, solid-bottom 384-well plates at 30 µL (3000 cells) per well. […] Luminescence was recorded every 100 min in a microplate reader, Infinite M200Pro (Tecan). For the phase control experiments, cellular light irradiation was performed in a dark 32 °C room and luminescence was recorded in a microplate reader Synergy H1 (BioTek) placed in the same room, to avoid possible effect of transient temperature change on the phase. Circadian period and phase were determined from luminescence rhythms by a curve fitting program MultiCycle (Actimetrics). […]

In a further test the target is T1, CKIδ (Homo sapiens, UniProt P48730).
T1 construct: purchased Eurofins 14-520
T1 sequence (P48730 1-294 limits assumed): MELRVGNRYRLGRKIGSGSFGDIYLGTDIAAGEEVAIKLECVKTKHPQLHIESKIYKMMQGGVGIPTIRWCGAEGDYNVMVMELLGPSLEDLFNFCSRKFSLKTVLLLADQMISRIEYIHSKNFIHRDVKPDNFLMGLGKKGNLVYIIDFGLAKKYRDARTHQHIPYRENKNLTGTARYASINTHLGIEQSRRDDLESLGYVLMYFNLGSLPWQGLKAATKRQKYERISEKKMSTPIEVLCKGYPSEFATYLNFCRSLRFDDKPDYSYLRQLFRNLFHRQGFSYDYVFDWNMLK
In words: In vitro kinase assay (Kinase Glo), CKIδ. The format is biochemical. The note with it: green light 530 nm vs dark. The protocol: A stock solution of 7.4 mM in DMSO was prepared and thermally adapted by heating to c.a. 100 °C for 1 min. Two series of eight samples were prepared with consecutive three-time dilutions from the stock solution. One of the series (‘dark’ samples) was prepared in dark Eppendorf tube, the other series (‘light’ samples) was pre-irradiated with UV light (365 nm, UV lamp Spectroline, ENB-280/FE, 1 × 8 Watt) for 45 min. For compound 9, 1 mM solution in DMSO was thermally adapted by heating to 80 °C for 2 min and split into two vials. One vial was kept in the dark and the other was irradiated with green light (530 nm, 3x Nichia NCSG219B-V1, 3 × 550 mW, Sahlmann Photochemical Solutions) for 60 min. Both dark-kept and irradiated samples were subjected to 8-point 3-fold dilutions. All the solutions were applied to the well plate under a red lamp in the dark room in order to prevent ambient-light-induced photo-isomerization. […]
By employing this method, all reactions were started at the same time, minimizing variance between different samples. […] After the incubation, 10 μL Kinase Glo® (Promega) was applied into the wells and the luminescent signal was recorded by a plate reader (BioTek Synergy H1 or Cytation). […]
The data obtained from the in vitro kinase assay was analyzed using GraphPad software, in which the luminescence outcome is normalized. […]

With `CC(C)n1cnc2c(NCc3ccc(F)c(/N=N/c4c(F)cccc4F)c3F)ncnc21` [Compound 9], in the test with U2OS cells (after time point C), the “period after green light reversal” value is listed as “returned to normal”. In addition, the “phase delay compared with dark samples, 48 h condition” value in the test with U2OS cells (violet light activation, reversed by green light after 48 h) stood at 2 h. For the same compound, the “phase delay compared with dark samples, 72 h condition” value with U2OS cells (violet light activation, reversed by green light after 72 h) is on record as 4 h. Besides, the “ratio of CKIδ IC50 of cis-isomer to trans-isomer” value at CKIδ is listed as 3.7 times.

These data come from publication PMC8155176, “Reversible modulation of circadian time with chronophotopharmacology” (Nature Communications, 2021).
